Bridge positions count the residues as written; N and C are the ends. Peptide text beside a SMILES is read from it.
Molecular target: adult mouse muscle nAChR subtype (α1β1εδ) (Mus musculus, UniProt P02716+P04756+P20782)
Test: cell-based

Chain of adult mouse muscle nAChR subtype (α1β1εδ) (P02716 whole entry, looked up): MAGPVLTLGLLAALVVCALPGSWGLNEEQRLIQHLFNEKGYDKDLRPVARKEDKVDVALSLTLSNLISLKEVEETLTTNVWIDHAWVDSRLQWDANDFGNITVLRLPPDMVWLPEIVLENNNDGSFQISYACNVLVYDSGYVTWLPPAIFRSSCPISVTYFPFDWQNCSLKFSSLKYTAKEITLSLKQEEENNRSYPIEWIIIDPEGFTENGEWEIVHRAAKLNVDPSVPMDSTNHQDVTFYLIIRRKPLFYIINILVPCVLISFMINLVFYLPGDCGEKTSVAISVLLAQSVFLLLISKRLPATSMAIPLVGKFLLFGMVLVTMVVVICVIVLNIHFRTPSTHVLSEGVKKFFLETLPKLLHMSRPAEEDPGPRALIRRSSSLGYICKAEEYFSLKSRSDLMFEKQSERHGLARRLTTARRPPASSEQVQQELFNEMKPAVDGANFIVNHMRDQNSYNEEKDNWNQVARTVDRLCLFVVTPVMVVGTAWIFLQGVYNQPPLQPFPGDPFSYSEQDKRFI
Chain of adult mouse muscle nAChR subtype (α1β1εδ) (P04756 whole entry, looked up): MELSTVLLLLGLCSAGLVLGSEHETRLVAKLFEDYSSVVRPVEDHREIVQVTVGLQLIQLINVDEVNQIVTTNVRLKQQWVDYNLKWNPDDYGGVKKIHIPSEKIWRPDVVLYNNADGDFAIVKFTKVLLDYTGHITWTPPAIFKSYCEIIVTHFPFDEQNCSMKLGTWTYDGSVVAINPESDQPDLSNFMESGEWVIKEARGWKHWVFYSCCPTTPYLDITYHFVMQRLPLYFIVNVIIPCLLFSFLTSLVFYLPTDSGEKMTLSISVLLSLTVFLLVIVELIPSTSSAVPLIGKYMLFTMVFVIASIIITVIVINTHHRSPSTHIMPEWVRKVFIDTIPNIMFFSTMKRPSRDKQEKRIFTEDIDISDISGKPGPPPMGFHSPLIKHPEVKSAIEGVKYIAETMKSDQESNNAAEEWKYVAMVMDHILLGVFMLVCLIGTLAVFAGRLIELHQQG
Chain of adult mouse muscle nAChR subtype (α1β1εδ) (P20782 whole entry, looked up): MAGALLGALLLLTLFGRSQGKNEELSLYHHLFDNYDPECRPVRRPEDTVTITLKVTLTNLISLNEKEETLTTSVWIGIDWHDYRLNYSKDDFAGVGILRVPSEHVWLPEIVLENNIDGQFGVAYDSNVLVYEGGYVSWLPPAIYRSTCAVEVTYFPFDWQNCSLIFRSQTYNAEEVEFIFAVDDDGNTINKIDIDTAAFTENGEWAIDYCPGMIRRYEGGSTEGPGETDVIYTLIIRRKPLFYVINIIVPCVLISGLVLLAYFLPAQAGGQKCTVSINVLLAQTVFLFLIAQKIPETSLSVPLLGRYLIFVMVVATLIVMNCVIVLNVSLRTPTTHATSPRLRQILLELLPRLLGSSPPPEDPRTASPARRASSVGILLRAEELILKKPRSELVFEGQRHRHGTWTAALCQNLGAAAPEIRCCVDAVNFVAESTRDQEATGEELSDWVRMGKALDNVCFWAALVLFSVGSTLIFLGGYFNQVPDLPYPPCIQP

Q: CC[C@H](C)[C@@H]1NC(=O)CNC(=O)[C@H](C)NC(=O)[C@H](CCCNC(=N)N)NC(=O)[C@@H]2CSSC[C@@H](C(=O)N[C@@H](CCCNC(=N)N)C(N)=O)NC(=O)[C@H](Cc3c[nH]cn3)NC(=O)[C@H](CSSC[C@H](NC(=O)[C@@H](NC(=O)[C@H](CCCNC(=N)N)NC(=O)[C@@H]3CCCN3C(=O)[C@H](CCCNC(=N)N)NC(=O)[C@@H]3CCCN3C(=O)[C@@H](N)Cc3ccccc3)[C@@H](C)CC)C(=O)N[C@@H](CC(N)=O)C(=O)N[C@@H](CC(C)C)C(=O)N[C@@H](C)C(=O)N2)NC(=O)[C@H](Cc2ccccc2)NC(=O)[C@@H]2CCCN2C(=O)[C@H](Cc2ccc(O)cc2)NC(=O)[C@H](CCCCN)NC(=O)[C@H](Cc2c[nH]cn2)NC(=O)CNC1=O [pl14a] (H-FPRPRICNLACRAGIGHKYPFCHCR-NH2; disulfide 7-22, 11-24) was tested. Which IC50 did it give?
A: 507 nM
